In a melting point compilation (Tetko et al.; mined from patent text by program, amines drawn as free bases though some values may be those of a salt) one finds melting point data, which are given here for 87 compounds.

The structures appear in SMILES notation.

As a reminder, the melting point is the temperature, or range, at which the solid turns liquid. `c1ccc(CCN2CCN(c3n[nH]c4c3CCCc3ccccc3-4)CC2)cc1` had a melting point of 147 to 148 °C.

In turn, `CCCN1CCN(c2cc(-c3ccc(F)cc3F)c3c(n2)CCCCCC3)CC1` displayed a melting point of 108 to 109 °C.

For the compound `NCCn1c(-c2ccc(Br)cc2)csc1=Nc1ccccc1`, the melting point lay in the range of 58 to 61 °C.

On to `COc1ccc2nccc(C(=O)CC[C@@H]3CCN(CC#Cc4cc(F)cc(F)c4F)C[C@@H]3C(=O)O)c2c1`, for which the melting point came to 70 °C.

`CCCCCCC(=O)CCCCCCCC(COC(C)=O)(COC(C)=O)NC(C)=O` yielded a melting point of 88 to 89 °C.

`COc1ccc(S(=O)(=O)Nc2cccc3c2Nc2ccc(C#N)cc2CN3)cc1` came in with a melting point of 105 to 107 °C.

Consider `Clc1cccc2c1ccn2Cc1ccccc1`, for which the melting point was in the range of 58 to 60 °C.

Consider `Cc1c(C)c2c(c(C)c1O)C(CO)C(C)(C)O2` (configuration not stated), for which the melting point lay in the range of 89 to 90 °C.

`Cc1nc(-c2ccc(-c3ccc(C(=O)O)cc3)c(C)c2)no1`: the melting point lay within 229 to 231 °C.

In turn, `CCN(CC)C(=O)c1c(C(=O)NN=Cc2ccc(Cl)cc2)[nH]c2ccccc12` gave a melting point of 255 to 257 °C.

In the case of `Cc1ccnc(C(=O)c2[nH]c3ccc(C(F)(F)F)cc3c2CC(=O)O)c1`, the melting point lay in the range of 218 to 225 °C.

For the compound `CCN(CC)Cc1ccc2[nH]c(-c3ccccc3F)cc(=O)c2c1`, the melting point is 184 to 185 °C.

Compound `Cc1c(NC(=O)CC(C)(C)C)cc2c(c1C)OC(C)(C)C2c1ccccc1OC(F)(F)F` (configuration not stated) gave a melting point of 155 to 156 °C.

As for `CCOC(=O)C(=O)c1c[nH]c2c1ccc1c3ccccc3[nH]c12`, the melting point is more than 295 °C.

In turn, `O=[N+]([O-])c1cc(C(F)(F)F)ccc1SCc1ccccc1` showed a melting point of 132 to 136 °C.

With `CCCCc1nn(-c2cc(NC(=O)CC)ccc2C(F)(F)F)c(=O)n1Cc1ccc(-c2ccccc2S(=O)(=O)NC(=O)c2ccccc2Cl)cc1F`, the melting point is 181 to 183 °C.

Take `Cn1cc(-c2ccc3nc(NC(=O)c4ccc(C(C)(C)C)nc4)cn3c2)cn1`: the melting point was 228 to 230 °C.

In turn, `O=C(N[C@H](Cc1ccc(F)cc1)[C@@H](O)c1ccc(F)cc1)c1cccc2ccccc12` (racemic) registered a melting point of 199 to 200 °C.

In turn, `O=C(O)C=CC(=O)OC1CCN(C(=O)Cn2c(=O)sc3ccc(Cl)cc32)CC1` gave a melting point of 197 to 198 °C.

Consider `COC(=O)c1ccc(OCC(=O)c2cc3cc(C(C)C)ccc3o2)cc1`, for which the melting point fell in the range of 95 to 97 °C.

For `CN1CC(C(=O)N(C)CCCc2ccc(Cl)c(Cl)c2)=C(O)C1=O`, the melting point fell in the range of 138 to 140 °C.

Regarding `COC(=O)c1c(C)[nH]c(=S)n1Nc1cccc(Cl)c1`, the melting point was 194 to 196 °C.

`Cc1ccc(C(=S)C2CCC3C4CCc5cc(C(=O)O)ccc5C4CCC23C)cc1` (configuration not stated) came in with a melting point of 255 to 257 °C.

`CCC(C)c1cc(C=O)c(O)c(S(C)(=O)=O)c1` (configuration not stated) had a melting point of 68 to 70 °C.

On to `O=C1C=C2CN(C(C(=O)C3CC3)c3ccccc3F)CCC2S1` (configuration not stated), for which the melting point lay in the range of 123 to 125 °C.

Turning to `COc1cc(OCCN2CCOCC2)ccc1/C=C/c1cc(/C=C/c2ccc3cc[nH]c3c2)n[nH]1`, the melting point is 113 to 122 °C.

Take `CC(C)CC1(CCCCN2CCN(c3ccccn3)CC2)C(=O)Nc2ccccc21` (configuration not stated): the melting point is 158 to 159 °C.

`COc1ccc(C(C#Cc2cnc(N)nc2)Cc2nc(C)co2)cc1OC1CCCC1` (racemic) registered a melting point of 103 to 105 °C.

As to `CCC(=O)Oc1ccc(C#N)cc1`, the melting point lay within 44 to 46 °C.

As to `Cc1cccc(NC(=O)NC2CN(C(=O)C3CCCCC3)c3ccccc3N(CC(=O)c3ccccc3C)C2=O)c1` (configuration not stated), the melting point fell in the range of 148 to 151 °C.

Compound `Cc1onc(NS(=O)(=O)c2ccccc2-c2ccc(-c3ncco3)cc2Cn2ccc(C(F)(F)F)n2)c1C` came in with a melting point of 89 to 99 °C.

As for `COC1(c2ccc(C(C)C)cc2O)C(=O)c2ccccc2C1=O`, the melting point is 272 to 274 °C.

As to `O=C(Cn1nnnc1-c1ccoc1)OCCO`, the melting point lay within 91 to 93 °C.

With `Cc1ncc2c(c1OCC(=O)O)COC2(C)c1ccc(F)cc1` (configuration not stated), the melting point lay in the range of 184 to 186 °C.

As to `CC(C)C[C@H](N)C(=O)NCCCCCNC(=O)OCc1ccccc1`, the melting point lay in the range of 145 to 146 °C.

The compound `N#Cc1cccnc1N1CCN(CC(=O)Nc2ccc(F)cc2)CC1` yielded a melting point of 98 to 100 °C.

`CC(C)CCC(O)C(CC1CCCCC1)NC(=O)C(Cc1c[nH]cn1)N(C)C(=O)C(Cc1ccccc1)OC(=O)N1CCOCC1` (configuration not stated) gave a melting point of 91 to 95 °C.

`COC1CCN(C(=O)COc2cc(-c3ccccc3)nc3ccccc23)CC1` registered a melting point of 96 °C.

`O=C(O)c1cn(-c2ccnc3ccccc23)cc1C1CC1` displayed a melting point of 195 °C.

The compound `COC(=O)c1cccc(-c2nc(COc3ccc(COc4nn(-c5ccccc5)cc4/C=C/c4nc(N5CCOCC5)sc4C)cc3OC)c(C)o2)c1` displayed a melting point of 183 to 184 °C.

The compound `Cc1cccc(NC(=O)NC2CN(C(=O)CN3CCN(C)CC3)c3ccccc3N(CC(=O)c3ccccc3C)C2=O)c1` (configuration not stated) came in with a melting point of 245 to 247 °C.

With `COc1ccc2c(c1)C(c1ccc([N+](=O)[O-])cc1)=NNC(=O)C2`, the melting point was determined as 282 °C.

`O=C(COc1cc(-c2ccc(Cl)cc2)nc2ccccc12)N1CCOCC1`: the melting point is 191 °C.

In the case of `CC(C)(CF)C(O)(COc1ccc(F)cc1)Cn1cncn1` (configuration not stated), the melting point lay within 97 to 99 °C.

For the compound `O=C(O)[C@@H]1Cc2ccccc2N1C(=O)CN1CCN(Cc2ccc(Cl)cc2)CC1`, the melting point lay within 219 to 221 °C.

As to `Cn1cccc1-c1ccc(C(F)(F)F)cc1`, the melting point was 39 to 40 °C.

The compound `OCc1ccc2c(c1)ncn2-c1cccc(COCc2ccccn2)c1` came in with a melting point of 101 to 103 °C.

Compound `CC1(CC(=O)O)CCCCCC1=O` (configuration not stated) displayed a melting point of 43 to 45 °C.

Take `Cn1ccc2cc(Nc3cnccc3N)ccc21`: the melting point is 167 to 169 °C.

`Cc1cccc(-c2[nH]c(C(C)C)nc2-c2ccc(F)c(-c3c[nH]nn3)c2)n1` returned a melting point of 233 to 235 °C.

In the case of `Cc1ccc(S(=O)(=O)n2ccc3cc(-c4ccccc4)cnc32)cc1`, the melting point fell in the range of 151 to 152 °C.

For `CCN(c1ccc(C)c2cc(-c3ncc(CN4CCN(C(C)=O)CC4)s3)[nH]c12)S(=O)(=O)c1cccs1`, the melting point fell in the range of 157 to 158 °C.

`N#Cc1nn(-c2c(Cl)cc(C(F)(F)F)cc2Cl)c(N)c1C1=CCCCC1` gave a melting point of 175 to 177 °C.

Compound `CCC(C)Cc1ccc(OC(=O)c2ccc(O)cc2Cl)cc1` (single isomer, unassigned; (+)) yielded a melting point of 142 °C.

`CCOC(=O)c1c(O)c2ccccc2c2nc3ccccc3nc12` gave a melting point of 126 to 127 °C.

In turn, `CC(C)c1nc(C(C)C)c(CN2CCOCC2)c(-c2ccc(F)cc2)c1CO` came in with a melting point of 93.5 to 95.5 °C.

Compound `Cc1c(C)c(N2CCN(c3ccc(C(N)=O)cc3)CC2)c(C)c2c1OC(C)C2` (configuration not stated) came in with a melting point of 240 to 245 °C.

`N#Cc1ccc(-c2ccc(OC[C@H](O)CCc3cccnc3)cc2)cc1` registered a melting point of 135 to 136 °C.

Turning to `Cc1csc2nc3ccc(C(F)(F)F)cc3n12`, the melting point worked out at 127 °C.

`CC(=O)C1CC2CCC1(COC(=O)Oc1ccccc1)CC2` (configuration not stated): the melting point was in the range of 74 to 75 °C.

In turn, `CC(C)n1cc(C(=O)O)c2ccc(F)cc21` showed a melting point of 177 to 180 °C.

Compound `CCOC(=O)NCCOC(=O)COc1cc(Oc2ccc(C(F)(F)F)cc2Cl)ccc1[N+](=O)[O-]` gave a melting point of 94 to 95 °C.

Take `C#Cc1cccc(Nc2ncnc3ccc(S(=O)(=O)n4ccc(C=CC(=O)NOC5CCCCO5)c4)cc23)c1` (configuration not stated): the melting point was 152 to 155 °C.

On to `COc1cc(OC)cc(N2CCN(C(=O)Nc3cc4ccccc4cc3OC)CC2)c1`, for which the melting point fell in the range of 191 to 193 °C.

Turning to `COC(=O)c1cc(NC2CCOCC2)nc(Cl)n1`, the melting point lay in the range of 190 to 192 °C.

Turning to `Clc1ccc(-c2cccs2)nn1`, the melting point was found to be 155 °C.

The compound `CCOC(=O)c1cnc(Nc2ccc(N(C)C)cc2)[nH]c1=O` returned a melting point of 246 to 248 °C.

The compound `CNC(=O)N(O)C(C)C#Cc1ccc(Cl)cc1` (configuration not stated) had a melting point of 151 to 153 °C.

As to `CC(C)CC(NC(=O)Cc1ccc2ccccc2c1)C(=O)NC(Cc1ccccc1)C(=O)CSCc1ccco1` (configuration not stated), the melting point was 123 to 125 °C.

`COc1ccc(Cc2cnc(N)nc2N)cc1` had a melting point of 206 to 209 °C.

As to `CC1(COc2ccc(CC3SC(=O)NC3=O)cc2)CCc2cc(C(=O)O)ccc2O1` (configuration not stated), the melting point was in the range of 223 to 225 °C.

In turn, `CN(C)C(CC(F)C(=O)c1ccccc1)N1CCC(O)(c2ccc(Cl)cc2)CC1` (configuration not stated) had a melting point of 160 to 163 °C.

For the compound `O=C(CCCCC1CCN(Cc2ccccc2)CC1)c1ccc(F)cc1`, the melting point fell in the range of 67 to 68 °C.

On to `c1cc(-c2ccnc3nccn23)ccn1`, for which the melting point is 244 to 245 °C.

Consider `COc1cc(C(C)=O)c(O)cc1OCCCCl`, for which the melting point was 99 to 101 °C.

The compound `COC(=O)c1nc(Cl)sc1-c1ccccc1` returned a melting point of 63 to 65 °C.

Take `Cc1cccc(CC(=O)O)c1OCCCc1cc(OC(C)C)nn1Cc1ccc(Cl)cc1Cl`: the melting point fell in the range of 70 to 71 °C.

The compound `OCc1nccc(N2CCOCC2)n1` came in with a melting point of 76 to 78 °C.

The compound `Cc1ccc(S(=O)(=O)Oc2ccc(S(=O)(=O)CC(=O)C(C)C)cc2)cc1` showed a melting point of 156 to 157 °C.

In turn, `CCOC(=O)c1cnc(OC)nc1Cl` showed a melting point of 26 to 28 °C.

With `COCCc1nc2c(N)nc3c(c2n1CCOCCNS(C)(=O)=O)CCCC3`, the melting point lay within 151 to 153 °C.

`O=C(N[C@H]1CC[C@@H](O)C1)OCc1ccccc1` (relative stereo) yielded a melting point of 62 to 63 °C.

`Cc1ccc(N2C(=O)C(O)=C(C(=O)c3ccc(-c4ccccn4)cc3)C2c2ccc(OC(F)(F)F)cc2)nn1` (configuration not stated) displayed a melting point of 247 to 249 °C.

As to `COC(=O)c1cc2ccc(S)cc2nc1OC`, the melting point was 103 to 105 °C.

As for `Cc1nc(N(C)c2cccnc2)sc1-c1ccnc(Nc2ccc(N3CCOCC3)cc2)n1`, the melting point lay within 194 to 195 °C.

In turn, `CCOC(=O)Cc1c(C)nn(-c2ccc(OC)cc2)c1C` yielded a melting point of 71 to 72 °C.

In the case of `CC(C)(O)C1Cc2cc3ccc(=O)oc3cc2O1` (configuration not stated), the melting point lay within 186 to 187 °C.
